According to patent US20260355151A1, “SPIROCYCLIC DERIVATIVE-CONTAINING SALT OR CRYSTAL FORM, AND PREPARATION METHOD THEREFOR AND USE THEREOF” (SHUJING BIOPHARMA CO., LTD, priority 2022, published 2026):
Structures can show the parent of a compound that is named as a salt. Where two headings read alike, the source gives them in different places.

Experiments:
[1] = molecular target: T1, TAAR1 receptor (Homo sapiens, UniProt Q96RJ0); assay: TAAR1 receptor cAMP agonist test; assay type: cell-based; parameters: Emax: dose or concentration left out as unconfirmed
T1 sequence (Q96RJ0 1-339): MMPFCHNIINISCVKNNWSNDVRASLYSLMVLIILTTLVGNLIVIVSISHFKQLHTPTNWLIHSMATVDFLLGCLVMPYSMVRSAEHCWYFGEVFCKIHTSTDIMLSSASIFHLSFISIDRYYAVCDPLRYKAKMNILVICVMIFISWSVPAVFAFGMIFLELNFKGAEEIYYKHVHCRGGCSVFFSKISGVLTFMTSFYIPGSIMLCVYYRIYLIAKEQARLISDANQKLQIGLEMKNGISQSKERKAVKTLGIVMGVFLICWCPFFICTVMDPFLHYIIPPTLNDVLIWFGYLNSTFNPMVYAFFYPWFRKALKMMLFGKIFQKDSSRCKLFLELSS
Excerpt: The cAMP detection kit was purchased from Cisbio; the […] cell line stably expressing TAAR1 receptor was constructed by Shanghai Shujing Biotechnology Co., Ltd.; IBMX was purchased from Sigma; Phenethylamine (PEA); ProxiPlate-384 well plate was purchased from PerkinElmer; HBSS was purchased from Thermo Fisher Scientific Company.

[2] = molecular target: T2, 5-HT1A receptor (Homo sapiens, UniProt P08908); assay: 5-HT1A receptor cAMP agonist test; assay type: cell-based
T2 sequence (P08908 1-422): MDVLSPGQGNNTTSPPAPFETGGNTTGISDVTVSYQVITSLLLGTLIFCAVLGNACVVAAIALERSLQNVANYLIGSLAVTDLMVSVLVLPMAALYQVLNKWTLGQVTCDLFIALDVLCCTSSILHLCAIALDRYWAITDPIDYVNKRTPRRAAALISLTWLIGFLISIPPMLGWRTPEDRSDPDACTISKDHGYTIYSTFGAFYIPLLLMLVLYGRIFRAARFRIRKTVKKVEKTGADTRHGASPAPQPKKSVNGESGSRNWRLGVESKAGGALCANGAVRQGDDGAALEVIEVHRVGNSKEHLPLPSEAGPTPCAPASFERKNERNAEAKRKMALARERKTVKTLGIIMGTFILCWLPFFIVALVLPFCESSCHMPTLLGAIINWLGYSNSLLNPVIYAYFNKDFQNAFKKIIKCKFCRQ
Excerpt: The cAMP detection kit was purchased from Cisbio; the HEK293 cell line stably expressing 5-HT1A receptor was constructed by Shanghai Shujing Biotechnology Co., Ltd.; Serotonin, Forskolin and IBMX were purchased from Sigma; ProxiPlate-384-well plates was purchased from PerkinElmer; HBSS was purchased from Thermo Fisher Scientific.
Activation rate (activity %)=(negative control ratio-compound ratio)/(negative control ratio-positive control ratio)×100%

[3] = system: high spontaneous activity induced by MK-801 in mice; assay: Inhibition of high spontaneous activity induced by MK-801 in mice; assay type: in vivo, male C57Bl/6J mice
Protocol: Compounds to be tested: compounds in the examples of the present application, self-made.
(§1) Experimental animals: 18-22 g male C57Bl/6J mice, purchased from Shanghai Slack Experimental Animal Co., Ltd.
(§2) before the start of the experiment, animals were randomly grouped according to body weight.
before the experiment, the mice were first adapted to the experimental environment for at least 1 hour. That is, the animals were transferred from the breeding room to the laboratory and moved freely in the cage.
(§3) Drug preparation: taking the compound to be tested, adding pure water and performing ultrasonication.
(§4) The animals were randomly divided into blank group, model group, and administration group according to body weight, 9 mice/group, and the detailed administration information is shown in the following table:
(§5) T-30 min oral administration of compound: compound to be tested or solvent (pure water) was administered orally by gavage, and put into test box (test box size length*width*height=27*27*40 cm) immediately after administration, recording the spontaneous activity of the mice within 30 minutes.
The blank control group was injected with normal saline.
(§6) The activities of these animals (movement distance in the test box) were automatically recorded by the camera, and analyzed with ANY MAZE software, and the ED50 values were calculated.

[4] = system: high spontaneous activity induced by PCP in mice; assay: Inhibition of high spontaneous activity induced by PCP in mice; assay type: in vivo, male C57Bl/6J mice
Excerpt: Compounds to be tested: compounds of the examples of the present application, self-made.
Phencyclidine hydrochloride (PCP): purchased from Shanghai Yuansi Standard Science Technology Co., Ltd., specification: 5 g.
as §1, §2
before the experiment, the mice were first adapted to the experimental environment for at least 1 hour. That is, animals were transferred from the feeding room to the laboratory, and moved freely in the cage.
as §3, §4, §5
T0 min intraperitoneal injection of modeling drug: 30 minutes after compound administration, the mice were taken out, and administered with PCP (5 mg/kg) by intraperitoneal injection. The blank control group was injected with pure water. After the administration of PCP, the animals were immediately put back into the test box, and the test was continued for 60 minutes.
as §6

[5] = Equilibrium solubility in water for 24 hours; assay type: physicochemical; conditions: deionized water, 37 °C
Protocol: Investigating the equilibrium solubility of each hydrochloride crystal form of Compound A in water for 24 hours.
Excess samples of hydrochloride crystal form I and hydrochloride crystal form II of Compound A were weighed and placed in different 10 mL centrifuge tubes, and 1 mL of deionized water was added, sealed with a parafilm, shaking at a constant temperature of 37 °C and 150 rpm for 24 hours; after passing through a 0.45 μm organic filter, the sample was diluted and injected for HPLC analysis.

[6] = Solid stability experiment (high temperature, high humidity, light); assay type: physicochemical; conditions: for chemical stability: high temperature, high humidity, or illumination, conclusion in words; for degraded at 240 h / degraded at 480 h / degraded at 2040 h: solid, read-out: Increase of total impurities; for degraded at 240 h: day 10; for degraded at 480 h: day 20; for degraded at 2040 h: day 85
Protocol: Investigating the chemical stability of each hydrochloride crystal form of Compound A under high temperature, high humidity, and light conditions.
Appropriate amounts of hydrochloride crystal form I and hydrochloride crystal form II of Compound A were weighed and placed in weighing dishes respectively; three samples for each salt were prepared, and placed respectively in a oven at 60 °C, a drying dish with RH 92.5%, and a stability test chamber with an illumination condition of 5000 lx for 85 days. After mixing all samples evenly at day 0, day 10, day 20, and day 85, samples were taken and dissolved in acetonitrile and water, and the content and impurity changes were detected by HPLC-related substance detection method.

## CNC[C@@H]1OCC2(CC2)c2sccc21 (single isomer, unassigned) [Compound A]
[1]; conclusion in words
  agonist effect on the TAAR1 receptors: have an agonist effect on the TAAR1 receptors
[1]; read-out: TAAR1 Max Act %
  Emax: 95.5%
[2]; activation rate, positive control Serotonin, final concentration 10^−6M, read-out: 5-HT1A Max Act %
  Emax at 1 µM: 95.2%
[2]; conclusion in words
  agonistic effect on 5-HT1A receptors: has agonistic effect on 5-HT1A receptors
[3]; MK-801 model, conclusion in words
  inhibitory effect compared to SEP-363856: lower minimum effective dose and stronger inhibitory effect
[3]; Mus musculus, po, 2.5 h, p.o. 30 min before MK-801 0.3 mg/kg i.p., movement distance, 150 min, read-out: MED (minimum effective dose)
  minimal effective dose: 10 mg/kg
[3]; p.o., conclusion in words
  inhibition of high spontaneous activity induced by MK-801: can significantly inhibit the high spontaneous activity induced by MK-801 in mice, and the inhibitory effect is gradually enhanced with the increase of the compound dosage, and there is a good dose-dependent relationship
[4]; Mus musculus, po, 1 h, p.o. 30 min before PCP 5 mg/kg i.p., movement distance, 60 min, read-out: MED (minimum effective dose)
  minimal effective dose: 0.1 mg/kg
[4]; PCP model, conclusion in words
  inhibitory effect compared to SEP-363856: lower minimum effective dose and stronger inhibitory effect
[4]; p.o., conclusion in words
  inhibition of high spontaneous activity induced by PCP: can significantly inhibit the high spontaneous activity induced by PCP in mice, and the inhibitory effect is gradually enhanced with the increase of the compound dosage, and there is a good dose-dependent relationship

## CNC[C@@H]1OCC2(CC2)c2sccc21 [Hydrochloride crystal form I, (R)-1-(4′H,6′H-spiro[cyclopropane-1,7′-thieno[3,2-c]pyran]-4′-yl)-N-methylmethylamine]
[5]; water
  solubility thermodynamic at 24 h: 155 mg/mL
[6]
  chemical stability: good chemical stability
[6]; High humidity of RH 92.5%
  degraded at 240 h: < 0.1%
  degraded at 480 h: < 0.1%
  degraded at 2040 h: 0.199%
[6]; Illumination of 5000 lx
  degraded at 240 h: < 0.1%
  degraded at 480 h: < 0.1%
  degraded at 2040 h: < 0.1%

## CNC[C@@H]1OCC2(CC2)c2sccc21 [Hydrochloride crystal form II, (R)-1-(4′H,6′H-spiro[cyclopropane-1,7′-thieno[3,2-c]pyran]-4′-yl)-N-methylmethylamine]
[5]; 1440 min
  Equilibrium solubility: 162.30 mg/mL
[6]
  chemical stability: good chemical stability
[6]; High temperature of 60 °C
  degraded at 240 h: < 0.1%
  degraded at 480 h: < 0.1%
  degraded at 2040 h: 0.133%
